# Where two headings read alike, the source gives them in different places.
# Tests used:
# MDA-MB-231 cells = settings: cited from earlier work
# DU-145 [1] = test system: DU-145; parameters: method as in PMID 11306488; settings: cited from earlier work
# DU-145 [2] = experiment: MTT cell viability assay, DU-145; type: cell-based, human; settings: 48 h
# Procedure: (§1) The cell lines were purchased from the American Type Culture Collection (ATCC). The four tumor cell lines used were as follows: MDA-MB-231 (triple-negative breast cancer), HTB-54 (lung cancer), DU-145 (prostate cancer), and HCT-116 (colon cancer), and the non-tumoral cell line 185-B5 (mammary tissue) were grown in Roswell Park Memorial Institute (RPMI) 1640 medium culture (Thermo Scientific, USA), supplemented with 10% fetal bovine serum (FBS) (Thermo Scientific, USA) and 1% of antibiotics (10,000 units/mL penicillin and 10 mg/mL streptomycin (Thermo Scientific, USA)). Cells were preserved in tissue culture flasks at 37 °C and 5% CO2. The culture medium was replaced every two to three days.
# (§2) Cell viability was determined using the MTT colorimetric assay. A total of 10,000 cells were seeded in each well in a 96-well plate for 24 h. Then, cells were incubated with the corresponding concentration of each tested compound and with DMSO (1%) as control for 48 h. Each compound was dissolved in DMSO at a stock concentration of 0.01 M. Firstly, each compound was tested at 2 concentrations (10 µM and 50 µM) in four human tumoral cell lines MDA-MB-231, HTB-54, DU-145, and HCT-116. Serial dilutions from stock concentration with culture medium were prepared. […] The cell viability was determined by the addition of 20 µL of MTT and its incubation for 2.5 h. Later, the culture medium was removed, and 50 µL of DMSO was added to dissolve formazan crystals. The absorbance was measured at 550 nm. Inhibitory concentration 50 (IC50) and selectivity index (SI) were calculated. Three different experiments were performed independently.
# (§3) Cell viability results are expressed as the mean ± standard deviation (SD), and experiments were independently performed thrice in triplicates. IC50 values were determined using a non-linear curve regression analysis calculated by OriginPro 9.0 software.
# DU-145 cells [3] = experiment: Muse Annexin V/7-AAD apoptosis assay; type: cell-based, human; settings: DU-145, 2.5 μM, 48 h
# Procedure: (§4) The apoptosis assays were conducted using the Muse Caspase-3/7 assay kit and the Annexin V/7-AAD kit (EMD Millipore, Darmstadt, Germany) following the manufacturer’s instructions. Initially, DU-145 cells were seeded in 6-well plates at a density of 1 × 10^5 cells per well. After 24 h of incubation, the cells received treatment with 2.5 µM and 5 µM of compound 4. Subsequently, the cells were incubated for 48 h. Upon completion of the treatment period, the cells were harvested using enzyme-free Cell Dissociation Buffer. The samples were then subjected to the appropriate dyes according to the manufacturer’s instructions and analyzed using the Muse Cell Analyzer (Merck Millipore, Darmstadt, Germany).
# Apoptosis was assessed using the Muse Annexin V & Dead Cell assay kit following the manufacturer’s guidelines.
# 184-B5 = experiment: MTT cell viability assay, non-malignant 184-B5; type: cell-based; settings: Homo sapiens, 48 h, mean ± SD of three experiments, read-out: IC50 184-B5 (Breast, non-tumoral)
# Procedure: as §1, §2, §3
# [4] = test system: MDA-MB-231, HTB-54, DU-145, and HCT-116; experiment: MTT initial screening in four tumor cell lines; type: cell-based; settings: Homo sapiens, in at least three cell lines, 48 h, read-out: cell growth inhibition
# Procedure: as §2
# [5] = test system: panel of 60 cancer cell lines; experiment: NCI60 Five-Dose assay; type: cell-based; settings: Five-Dose assay 0.01–100 µM, 48 h, 60 cell line panel
# Procedure: (§5) The ten compounds with the highest cell growth inhibition activity were submitted to the Developmental Therapeutics Program (DTP) of the National Cancer Institute (NCI). The assay consists of the evaluation of the cytotoxicity by a One-Dose screening at 10^−5 M against a panel of 60 cancer cell lines of different tumors (leukemia, lung, central nervous system (CNS), melanoma, ovarian, renal, prostate, and breast cancer cell lines). […] A range of 5000–40,000 cells/well were seeded and cultured in RPMI 1640 containing 5% of FBS and 2 mM L-glutamine and were inoculated into 96-well microtiter plates in 100 µL. The microtiter plates are incubated at 37 °C and 5% humidified CO2 for 24 h prior to the addition of experimental drugs. After that, an experimental drug was added, and the microtiter was incubated for 48 h.
# HTB-54 = experiment: MTT cell viability assay, HTB-54; type: cell-based, human; settings: 48 h
# Procedure: as §1, §2, §3
# MDA-MB-231 = experiment: MTT cell viability assay, MDA-MB-231; type: cell-based, human
# Procedure: as §1, §2, §3
# [6] = test system: apoptotic proteins in DU-145 cells; experiment: Western blot of apoptotic proteins; type: cell-based, human; settings: DU-145, 5 µM, 24 h
# Procedure: Western blot analysis was conducted to evaluate changes in protein expression levels before and after treatment. In brief, DU-145 cells were treated with 5 µM of compound 4, and upon completing the designated treatment duration, cell lysis was achieved using RIPA buffer (Thermo Scientific, USA), supplemented with a protease inhibitor cocktail (Thermo Scientific, USA). Subsequently, the resulting lysates were chilled on ice for 30 min and then centrifuged at 10,000 rpm for 15 min to remove cellular debris. Total protein concentration was determined using the BCA assay (Thermo Scientific, USA). Equivalent quantities of cell lysates were separated using NuPAGE 4–12% gels (Life Technologies, Carlsbad, CA, USA), followed by electro-transfer onto a PVDF membrane. Various antibodies were employed to investigate protein expression levels, with detection accomplished using the Enhanced Chemiluminescent reagent (Life Technologies, USA). All antibodies utilized in this study were procured from Cell Signaling Technologies (Danvers, MA, USA).
# HCT-116 = experiment: MTT cell viability assay, HCT-116; type: cell-based, human; settings: 10 µM, 48 h, MTT screening (Figure S1)
# Procedure: as §1, §2, §3
# [7] = test system: MDA-MB-231, HTB-54, and DU-145; experiment: MTT dose-response in the three tumoral cell lines; type: cell-based, human; settings: 48 h, read-out: IC50 toward the tumoral cell lines
# Procedure: as §2, §3
# DU-145 cells [8] = experiment: Muse Caspase-3/7 assay; type: cell-based, human; settings: DU-145, 2.5 and 5 µM, 48 h
# Procedure: as §4
# [9] = test system: panel of 60 cancer cell lines; experiment: NCI60 One-Dose screening; type: cell-based; settings: 1·10^−5 M, 48 h, mean of 60 cancer cell lines
# Procedure: as §5
# [10] = 10 µM, MTT screening (Figure S1)
compound,measurement,setting,value
O=[Se]=O [SeO2],cell viability,MDA-MB-231 cells; MDA-MB-231,at least 50%
[Se] [elemental Se],type of cell death,DU-145 [1],apoptotic cell death
same,effect on cell growth,MDA-MB-231 cells; MDA-MB-231 cells incubated alone with Se,no effect on cell growth
CC(=O)Oc1ccccc1C(=O)[Se]C(=NC(C)C)NC(C)C [Compound 4],"percentage of cell growth, DU-145",DU-145 [2]; [10],-82.47%
same,IC50,"DU-145 [2]; Homo sapiens, DU-145, MTT, mean ± SD of three experiments, read-out: IC50 DU-145 (Prostate)",5.06 ± 0.02 µM
same,cells exhibiting signs of apoptosis,DU-145 cells [3],over 25%
same,IC50,184-B5,9.6 ± 0.97 µM
same,inhibition at 10 µM,[4],> 50%
same,GI50,[5],< 2 µM
same,"percentage of cell growth, HTB-54",HTB-54; [10],-34.81%
same,IC50,"HTB-54; Homo sapiens, HTB-54, MTT, mean ± SD of three experiments, read-out: IC50 HTB-54 (Lung)",7.2 ± 1.81 µM
same,"percentage of cell growth, MDA-MB-231","MDA-MB-231; 10 µM, 48 h, MTT screening (Figure S1)",-41.78%
same,IC50,"MDA-MB-231; Homo sapiens, MDA-MB-231, MTT, 48 h, mean ± SD of three experiments, read-out: IC50 MDA-MB-231 (Breast)",5.48 ± 0.42 µM
same,Selectivity index (SI),MDA-MB-231; IC50 184-B5/IC50 MDA-MB-231,1.75
same,Bax expression,[6],upregulation
same,Bcl-2 expression,[6],Downregulation
same,caspase-3 cleavage and activation,[6],increased the cleavage and activation
same,expression of pro-caspase-9,[6],reduction
same,"percentage of cell growth, HCT-116",HCT-116,36.77%
same,IC50,[7],< 7.5 µM
same,IC50,[7]; Homo sapiens,< 10 µM
same,caspase 3/7 activity,DU-145 cells [8],dose-dependent increase
same,"mean value of cell growth, One-Dose assay",[9],−67.93%

# — PMC10891803, “Seleno-Warfare against Cancer: Decoding Antitumor Activity of Novel Acylselenoureas and Se-Acylisoselenoureas” (Pharmaceutics, 2024)
